# According to ChEMBL document CHEMBL4396916, “Novel potent substituted 4-amino-2-thiopyrimidines as dual VEGFR-2 and BRAF kinase inhibitors” (Eur J Med Chem, 2019):
# pIC50: −log10 of the molar value.
# Assays:
# MDA-MB-231 = experiment: Growth inhibition of human MDA-MB-231 cells at 10 uM incubated for 48 hrs by sulforhodamine B assay relative to control; assay type: functional; conditions: MDA-MB-231, 48 h, read-out: GI
# IGROV-1 = experiment: Growth inhibition of human IGROV1 cells at 10 uM incubated for 48 hrs by sulforhodamine B assay relative to control; assay type: functional; conditions: IGROV-1, 48 h, read-out: GI
# A498 = experiment: Growth inhibition of human A498 cells at 10 uM incubated for 48 hrs by sulforhodamine B assay relative to control; assay type: functional; conditions: A498, 48 h, read-out: GI
# MDA-MB-468 = experiment: Growth inhibition of human MDA-MB-468 cells at 10 uM incubated for 48 hrs by sulforhodamine B assay relative to control; assay type: functional; conditions: MDA-MB-468, 48 h, read-out: GI
# OVCAR-8 = experiment: Growth inhibition of human OVCAR8 cells at 10 uM incubated for 48 hrs by sulforhodamine B assay relative to control; assay type: functional; conditions: OVCAR-8, 48 h, read-out: GI
# RPMI-8226 = experiment: Growth inhibition of human RPMI8226 cells at 10 uM incubated for 48 hrs by sulforhodamine B assay relative to control; assay type: functional; conditions: RPMI-8226, 48 h, read-out: GI
# UACC-62 = experiment: Growth inhibition of human UACC62 cells at 10 uM incubated for 48 hrs by sulforhodamine B assay relative to control; assay type: functional; conditions: UACC-62, 48 h, read-out: GI
# SF-268 = experiment: Growth inhibition of human SF268 cells at 10 uM incubated for 48 hrs by sulforhodamine B assay relative to control; assay type: functional; conditions: SF-268, 48 h, read-out: GI
# SNB-75 = experiment: Growth inhibition of human SNB75 cells at 10 uM incubated for 48 hrs by sulforhodamine B assay relative to control; assay type: functional; conditions: SNB-75, 48 h, read-out: GI
# K562 = experiment: Growth inhibition of human K562 cells at 10 uM incubated for 48 hrs by sulforhodamine B assay relative to control; assay type: functional; conditions: K562, 48 h, read-out: GI
# MCF7 [1] = experiment: Cytotoxicity against human MCF7 cells expressing VEGFR2 and wild type BRAF measured after 48 hrs by sulforhodamine B assay; assay type: functional, cell-based; conditions: MCF7, 48 h
# SF-539 = experiment: Growth inhibition of human SF539 cells at 10 uM incubated for 48 hrs by sulforhodamine B assay relative to control; assay type: functional; conditions: SF-539, 48 h, read-out: GI
# PC-3 = experiment: Growth inhibition of human PC3 cells at 10 uM incubated for 48 hrs by sulforhodamine B assay relative to control; assay type: functional; conditions: PC-3, 48 h, read-out: GI
# CCRF-CEM = experiment: Growth inhibition of human CCRF-CEM cells at 10 uM incubated for 48 hrs by sulforhodamine B assay relative to control; assay type: functional; conditions: read-out: GI
# [2] = target: Vascular endothelial growth factor receptor 2 (Homo sapiens, UniProt P35968); experiment: Inhibition of human N-terminal GST tagged VEGFR-2 expressed in baculovirus infected Sf9 cells using poly (Glu,Tyr) 4:1 as substrate in presence of ATP by Kinase-Glo luminescence assay
# HOP-62 = experiment: Growth inhibition of human HOP62 cells at 10 uM incubated for 48 hrs by sulforhodamine B assay relative to control; assay type: functional; conditions: HOP-62, 48 h, read-out: GI
# NCI-H226 = experiment: Growth inhibition of human NCI-H226 cells at 10 uM incubated for 48 hrs by sulforhodamine B assay relative to control; assay type: functional; conditions: NCI-H226, 48 h, read-out: GI
# CAKI-1 = experiment: Growth inhibition of human Caki1 cells at 10 uM incubated for 48 hrs by sulforhodamine B assay relative to control; assay type: functional; conditions: CAKI-1, 48 h, read-out: GI
# SNB-19 = experiment: Growth inhibition of human SNB19 cells at 10 uM incubated for 48 hrs by sulforhodamine B assay relative to control; assay type: functional; conditions: SNB-19, 48 h, read-out: GI
# EKVX = experiment: Growth inhibition of human EKVX cells at 10 uM incubated for 48 hrs by sulforhodamine B assay relative to control; assay type: functional; conditions: read-out: GI
# NCI-H23 = experiment: Growth inhibition of human NCI-H23 cells at 10 uM incubated for 48 hrs by sulforhodamine B assay relative to control; assay type: functional; conditions: NCI-H23, 48 h, read-out: GI
# ACHN = experiment: Growth inhibition of human ACHN cells at 10 uM incubated for 48 hrs by sulforhodamine B assay relative to control; assay type: functional; conditions: read-out: GI
# NCI-H522 = experiment: Growth inhibition of human NCI-H522 cells at 10 uM incubated for 48 hrs by sulforhodamine B assay relative to control; assay type: functional; conditions: NCI-H522, 48 h, read-out: GI
# UO-31 = experiment: Growth inhibition of human UO31 cells at 10 uM incubated for 48 hrs by sulforhodamine B assay relative to control; assay type: functional; conditions: UO-31, 48 h, read-out: GI
# SK-MEL-5 = experiment: Growth inhibition of human SK-MEL-5 cells at 10 uM incubated for 48 hrs by sulforhodamine B assay relative to control; assay type: functional; conditions: SK-MEL-5, 48 h, read-out: GI
# [3] = target: Serine/threonine-protein kinase B-raf (Homo sapiens, UniProt P15056); experiment: Inhibition of human wild type BRAF by Kinase-Glo luminescence assay
# T47D [4] = experiment: Growth inhibition of human T47D cells at 10 uM incubated for 48 hrs by sulforhodamine B assay relative to control; assay type: functional; conditions: read-out: GI
# RXF 393 = experiment: Growth inhibition of human RXF393 cells at 10 uM incubated for 48 hrs by sulforhodamine B assay relative to control; assay type: functional; conditions: RXF 393, 48 h, read-out: GI
# OVCAR-4 = experiment: Growth inhibition of human OVCAR4 cells at 10 uM incubated for 48 hrs by sulforhodamine B assay relative to control; assay type: functional; conditions: OVCAR-4, 48 h, read-out: GI
# MCF7 [5] = experiment: Growth inhibition of human MCF7 cells at 10 uM incubated for 48 hrs by sulforhodamine B assay relative to control; assay type: functional; conditions: MCF7, 48 h, read-out: GI
# NCI/ADR-RES = experiment: Growth inhibition of human NCI/ADR-RES cells at 10 uM incubated for 48 hrs by sulforhodamine B assay relative to control; assay type: functional; conditions: read-out: GI
# MCF7 [6] = experiment: Inhibition of VEGFR2 level in human MCF7 cells at 10 uM measured after 48 hrs by ELISA relative to control; assay type: functional; conditions: MCF7, 48 h
# LOX IMVI = experiment: Growth inhibition of human LOXIMVI cells at 10 uM incubated for 48 hrs by sulforhodamine B assay relative to control; assay type: functional; conditions: read-out: GI
# MOLT-4 = experiment: Growth inhibition of human MOLT4 cells at 10 uM incubated for 48 hrs by sulforhodamine B assay relative to control; assay type: functional; conditions: MOLT-4, 48 h, read-out: GI
# HCT-116 = experiment: Growth inhibition of human HCT116 cells at 10 uM incubated for 48 hrs by sulforhodamine B assay relative to control; assay type: functional; conditions: HCT-116, 48 h, read-out: GI
# T47D [7] = experiment: Cytotoxicity against human T47D cells expressing wild type BRAF measured after 48 hrs by sulforhodamine B assay; assay type: functional, cell-based
# HCT-15 = experiment: Growth inhibition of human HCT15 cells at 10 uM incubated for 48 hrs by sulforhodamine B assay relative to control; assay type: functional; conditions: HCT-15, 48 h, read-out: GI
# SF-295 = experiment: Growth inhibition of human SF295 cells at 10 uM incubated for 48 hrs by sulforhodamine B assay relative to control; assay type: functional; conditions: SF-295, 48 h, read-out: GI
# A549 = experiment: Growth inhibition of human A549/ATCC cells at 10 uM incubated for 48 hrs by sulforhodamine B assay relative to control; assay type: functional; conditions: A549, 48 h, read-out: GI
# KM12 = experiment: Growth inhibition of human KM12 cells at 10 uM incubated for 48 hrs by sulforhodamine B assay relative to control; assay type: functional; conditions: KM12, 48 h, read-out: GI
# SR = experiment: Growth inhibition of human SR cells at 10 uM incubated for 48 hrs by sulforhodamine B assay relative to control; assay type: functional; conditions: read-out: GI
# SN12C = experiment: Growth inhibition of human SN12C cells at 10 uM incubated for 48 hrs by sulforhodamine B assay relative to control; assay type: functional; conditions: read-out: GI
# BT-549 = experiment: Growth inhibition of human BT549 cells at 10 uM incubated for 48 hrs by sulforhodamine B assay relative to control; assay type: functional; conditions: BT-549, 48 h, read-out: GI
# Hs-578T = experiment: Growth inhibition of human Hs578T cells at 10 uM incubated for 48 hrs by sulforhodamine B assay relative to control; assay type: functional; conditions: read-out: GI
# HOP-92 = experiment: Growth inhibition of human HOP92 cells at 10 uM incubated for 48 hrs by sulforhodamine B assay relative to control; assay type: functional; conditions: HOP-92, 48 h, read-out: GI
# Malme-3M = experiment: Growth inhibition of human MALME-3M cells at 10 uM incubated for 48 hrs by sulforhodamine B assay relative to control; assay type: functional; conditions: read-out: GI
# Vascular endothelial growth factor receptor 2, sequence (P35968 whole entry): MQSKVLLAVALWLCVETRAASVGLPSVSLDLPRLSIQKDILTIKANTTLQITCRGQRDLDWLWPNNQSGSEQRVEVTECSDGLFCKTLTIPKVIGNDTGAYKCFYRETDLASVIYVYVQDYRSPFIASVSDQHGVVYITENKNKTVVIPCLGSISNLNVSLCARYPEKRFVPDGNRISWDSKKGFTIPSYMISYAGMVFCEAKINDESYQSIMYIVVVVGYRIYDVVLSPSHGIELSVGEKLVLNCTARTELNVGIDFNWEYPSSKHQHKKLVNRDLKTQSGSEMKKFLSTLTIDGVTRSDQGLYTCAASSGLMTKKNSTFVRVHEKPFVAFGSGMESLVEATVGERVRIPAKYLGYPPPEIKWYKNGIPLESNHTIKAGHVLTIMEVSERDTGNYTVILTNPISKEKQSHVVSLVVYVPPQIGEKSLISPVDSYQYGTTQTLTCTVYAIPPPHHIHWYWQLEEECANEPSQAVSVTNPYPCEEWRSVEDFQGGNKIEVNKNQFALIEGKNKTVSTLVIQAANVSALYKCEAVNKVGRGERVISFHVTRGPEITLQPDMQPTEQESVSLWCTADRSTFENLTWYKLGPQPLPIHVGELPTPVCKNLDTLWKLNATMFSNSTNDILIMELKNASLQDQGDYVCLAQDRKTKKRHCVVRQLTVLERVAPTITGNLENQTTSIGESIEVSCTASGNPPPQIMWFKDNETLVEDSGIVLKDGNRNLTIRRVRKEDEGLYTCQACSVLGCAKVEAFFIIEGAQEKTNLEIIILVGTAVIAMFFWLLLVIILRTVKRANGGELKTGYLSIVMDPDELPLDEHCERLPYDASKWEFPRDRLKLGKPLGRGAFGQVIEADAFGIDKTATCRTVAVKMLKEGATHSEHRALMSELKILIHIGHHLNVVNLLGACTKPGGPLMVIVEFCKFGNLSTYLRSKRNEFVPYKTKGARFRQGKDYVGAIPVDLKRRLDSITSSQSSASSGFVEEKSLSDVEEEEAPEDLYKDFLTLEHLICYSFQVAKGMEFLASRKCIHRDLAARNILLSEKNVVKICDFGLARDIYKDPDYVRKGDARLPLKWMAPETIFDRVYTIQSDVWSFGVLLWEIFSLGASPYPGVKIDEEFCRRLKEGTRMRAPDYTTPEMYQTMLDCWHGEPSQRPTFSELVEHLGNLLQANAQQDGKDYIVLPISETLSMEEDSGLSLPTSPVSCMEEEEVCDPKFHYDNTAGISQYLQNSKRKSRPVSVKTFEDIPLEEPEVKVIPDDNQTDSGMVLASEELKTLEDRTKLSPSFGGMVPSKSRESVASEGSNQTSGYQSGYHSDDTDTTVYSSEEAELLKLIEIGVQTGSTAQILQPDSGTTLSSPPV
# Serine/threonine-protein kinase B-raf, sequence (P15056 whole entry): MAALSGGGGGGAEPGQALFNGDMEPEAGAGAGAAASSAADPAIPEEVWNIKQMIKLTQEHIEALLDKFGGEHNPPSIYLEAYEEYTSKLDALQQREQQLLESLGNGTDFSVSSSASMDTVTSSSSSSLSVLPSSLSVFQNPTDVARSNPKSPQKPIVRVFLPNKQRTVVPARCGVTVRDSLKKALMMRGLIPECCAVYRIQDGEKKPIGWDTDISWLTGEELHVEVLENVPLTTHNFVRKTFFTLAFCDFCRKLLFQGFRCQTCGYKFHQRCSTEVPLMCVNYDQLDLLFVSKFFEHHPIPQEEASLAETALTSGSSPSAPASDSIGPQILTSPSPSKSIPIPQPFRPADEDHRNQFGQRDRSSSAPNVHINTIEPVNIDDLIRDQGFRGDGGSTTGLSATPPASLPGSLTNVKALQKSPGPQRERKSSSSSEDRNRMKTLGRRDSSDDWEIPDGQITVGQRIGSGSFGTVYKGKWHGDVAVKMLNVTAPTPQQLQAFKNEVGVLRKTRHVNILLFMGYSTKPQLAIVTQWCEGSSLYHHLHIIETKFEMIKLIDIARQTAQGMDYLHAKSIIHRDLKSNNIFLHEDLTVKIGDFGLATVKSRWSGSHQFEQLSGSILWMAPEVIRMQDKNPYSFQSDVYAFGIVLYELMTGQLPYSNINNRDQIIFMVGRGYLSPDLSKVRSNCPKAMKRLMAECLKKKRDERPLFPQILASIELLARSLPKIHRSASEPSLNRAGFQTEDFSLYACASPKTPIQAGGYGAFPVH
pIC50 [2],SMILES,inhibition of growth at 10 µM (MDA-MB-231),inhibition of growth at 10 µM (IGROV-1),inhibition of growth at 10 µM (A498),inhibition of growth at 10 µM (MDA-MB-468),inhibition of growth at 10 µM (OVCAR-8),inhibition of growth at 10 µM (RPMI-8226),inhibition of growth at 10 µM (UACC-62),inhibition of growth at 10 µM (SNB-75),inhibition of growth at 10 µM (K562),pIC50 (MCF7 [1]),inhibition of growth at 10 µM (PC-3),inhibition of growth at 10 µM (CCRF-CEM),inhibition of growth at 10 µM (NCI-H226),inhibition of growth at 10 µM (CAKI-1),inhibition of growth at 10 µM (EKVX),inhibition of growth at 10 µM (NCI-H23),inhibition of growth at 10 µM (ACHN),inhibition of growth at 10 µM (NCI-H522),inhibition of growth at 10 µM (UO-31),other results
5.72,O=C(CSc1nccc(Nc2ccc(N3CCOCC3)cc2)n1)c1ccc(Cl)cc1,10%,17%,13%,19%,17%,10%,10%,36%,10%,4.14,12%,13%,13%,23%,10%,19%,10%,22%,26%,inhibition of growth at 10 µM (SF-268): 15%; inhibition of growth at 10 µM (SF-539): 15%; inhibition of growth at 10 µM (HOP-62): 37%; inhibition of growth at 10 µM (SNB-19): 19%
6.54,COc1ccc(C(=O)CSc2nccc(Nc3ccc(N4CCOCC4)cc3)n2)cc1,11%,12%,,13%,24%,45%,30%,,21%,4.64,16%,21%,13%,16%,,15%,11%,34%,35%,inhibition of growth at 10 µM (SK-MEL-5): 53%; pIC50 [3]: 6.36; inhibition of growth at 10 µM (T47D [4]): 67%; inhibition of growth at 10 µM (RXF 393): 10%; inhibition of growth at 10 µM (OVCAR-4): 15%; inhibition of growth at 10 µM (MCF7 [5]): 17%; inhibition of growth at 10 µM (NCI/ADR-RES): 24%; inhibition at 10 µM (MCF7 [6]): 52%; inhibition of growth at 10 µM (LOX IMVI): 11%; inhibition of growth at 10 µM (MOLT-4): 34%; inhibition of growth at 10 µM (HCT-116): 18%; pIC50 (T47D [7]): 5.36
6.66,CC(=O)c1ccc(Nc2ccnc(SCC(=O)c3ccc(Cl)cc3)n2)cc1,,,19%,27%,29%,46%,34%,,19%,4.26,30%,29%,21%,21%,10%,13%,11%,29%,33%,inhibition of growth at 10 µM (SK-MEL-5): 65%; pIC50 [3]: 6.19; inhibition of growth at 10 µM (T47D [4]): 71%; inhibition of growth at 10 µM (OVCAR-4): 18%; inhibition of growth at 10 µM (MCF7 [5]): 19%; inhibition of growth at 10 µM (NCI/ADR-RES): 46%; inhibition of growth at 10 µM (HOP-62): 14%; inhibition of growth at 10 µM (MOLT-4): 33%; inhibition of growth at 10 µM (HCT-15): 14%; pIC50 (T47D [7]): 4.84; inhibition of growth at 10 µM (SF-295): 14%; inhibition of growth at 10 µM (A549): 20%; inhibition of growth at 10 µM (KM12): 11%
6.02,CC(=O)c1ccc(Nc2ccnc(SCC(=O)c3ccc(Br)cc3)n2)cc1,12%,12%,19%,21%,18%,35%,23%,13%,30%,4.76,25%,30%,25%,24%,,16%,10%,29%,38%,inhibition of growth at 10 µM (SK-MEL-5): 17%; inhibition of growth at 10 µM (SR): 25%; inhibition of growth at 10 µM (T47D [4]): 44%; inhibition of growth at 10 µM (MCF7 [5]): 18%; inhibition of growth at 10 µM (NCI/ADR-RES): 31%; inhibition at 10 µM (MCF7 [6]): 76%; inhibition of growth at 10 µM (LOX IMVI): 14%; inhibition of growth at 10 µM (SN12C): 14%; inhibition of growth at 10 µM (MOLT-4): 39%; inhibition of growth at 10 µM (HCT-116): 10%; inhibition of growth at 10 µM (A549): 10%; inhibition of growth at 10 µM (BT-549): 19%
< 5.00,O=C(O)c1ccc(Nc2ccnc(SCC(=O)c3ccc(C(F)(F)F)cc3)n2)cc1,24%,13%,39%,,,,12%,28%,,4.17,12%,,13%,19%,10%,,,15%,32%,inhibition of growth at 10 µM (Hs-578T): 10%; inhibition of growth at 10 µM (HOP-92): 16%; inhibition of growth at 10 µM (Malme-3M): 30%; inhibition of growth at 10 µM (A549): 10%
